Assay results: patent US20040214834A1, “Pyrazolo-pyridines for the treatment of herpes infections” (priority 2001, published 2004)

System: HSV-1
Assay: HSV-1 replication in infected Vero 76 cells, viral DNA detected by hybridization capture
Format: cell-based, herpes simplex virus 1
Settings: Human alphaherpesvirus 1; HSV-1, Vero 76 cells, MOI=0.001, 40-48 hours incubation
Procedure: Vero 76 cells were maintained in MEM with Earle's salts, L-glutamine, 8% FBS (Hyclone, A-1111-L) and 100 units/mL Penicillin-100 μg/mL Streptomycin. For assay conditions, FBS was reduced to 2%. Cells are seeded into 96-well tissue culture plates at a density of 5×10^4 cells/well after being incubated for 45 min at 37° C. in the presence of HSV-1 or HSV-2 (MOI=0.001). Test compounds are added to the wells and the plates are incubated at 37° C. for 40-48 hours. Cell lysates are prepared as follows: media was removed and replaced with 150 μL/well 0.2 N NaOH with 1% Igepal CA 630 or NP-40. Plates were incubated up to 14 days at room temperature in a humidified chamber to prevent evaporation.
For the detection probe, a gel-purified, digoxigenin-labeled, 710-bp PCR fragment of the HSV UL-15 sequence was utilized. PCR conditions included 0.5 μM primers, 180 μM dTTP, 20 μM dUTP-digoxigenin (Boehringer Mannheim 1558706), 200 μM each of dATP, dCTP, and dGTP, 1× PCR Buffer II (Perkin Elmer), 2.5 mM MgCl2, 0.025 units/μL of AmpliTaq Gold polymerase (Perkin Elmer), and 5 ng of gel-purified HSV DNA per 100 μL Extension conditions were 10 min at 95° C., followed by 30 cycles of 95° C. for 1 min. 55° C. for 30 sec. and 72° C. for 2 min. The amplification was completed with a 10-min incubation at 72° C. […] Single-stranded transcripts were purified with Promega M13 Wizard kits. The final product was mixed 1:1 with a mixture of 6 M GuSCN, 100 mM EDTA and 200 μg/mL herring sperm DNA and stored at 4° C.
The capture DNA plasmid (HSV UL13 region in pUC) was linearized by cutting with Xbal, denatured for 15 min at 95° C. and diluted immediately into Reacti-Bind DNA Coating Solution (Pierce, 17250, diluted 1:1 with TE buffer, pH 8) at 1 ng/μL. 75 μL/well were added to Corning (#3922 or 9690) white 96-well plates and incubated at room temperature for at least 4 hrs before washing twice with 300 μL/well 0.2×SSC/0.05% Tween-20 (SSC/T buffer). The plates were then incubated overnight at room temperature with 150 μL/well 0.2 N NaOH, 1% IGEPAL and 10 μg/mL herring sperm DNA.
Twenty-seven (27) μL of cell lysate was combined with 45 μL of hybridization solution (final concentration: 3M GuSCN, 50 mM EDTA, 100 μg/ml salmon sperm DNA, 5× Denhardt's solution, 0.25×APE, and 5 ng of the digoxigenin-labeled detection probe). APE is 1.5 M NH4-acetate, 0.15 M ammonium phosphate monobasic, and 5 mM EDTA adjusted to pH 6.0. Mineral oil (50 μL) was added to prevent evaporation. The hybridization plates were incubated at 95° C. for 10 minutes to denature the DNA, then incubated at 42° C. overnight. The wells were washed 6× with 300 μL/well SSC/T buffer then incubated with 75 μL/well anti-digoxigenin- HRP-conjugated antibody (Boehringer Mannheim 1207733, 1:5000 in TE) for 30 min at room temperature. The wells were washed 6× with 300 μL/well with PBS/0.05% Tween-20 before 75 μL/well SuperSignal LBA substrate (Pierce) was added. The plates were incubated at room temperature for 30 minutes and chemiluminescence was measured in a Wallac Victor reader.
The following results were obtained for HSV-1.

IC50 | SMILES
0.26 µM | CC(C)Sc1cc(NC2CCCC2)cc2c(-c3ccnc(NC4CCCC4)n3)c(-c3ccc(F)cc3)nn12 [Example 13, N-Cyclopentyl-3-[2-(cyclopentylamino)-4-pyrimidinyl]-2-(4-fluorophenyl)-7-(isopropylsulfanyl)pyrazolo[1,5-α]pyridin-5-amine]
0.16 µM | CCOc1cc(NC2CCCC2)cc2c(-c3ccnc(NC4CCCC4)n3)c(-c3ccc(F)cc3)nn12 [Example 4, N-Cyclopentyl-3-[2-(cyclopentylamino)-4-pyrimidinyl]-7-ethoxy-2-(4-fluorophenyl)pyrazolo[1,5-α]pyridin-5-amine]
0.13 µM | CSc1cc(NC2CCCC2)cc2c(-c3ccnc(NC4CCCC4)n3)c(-c3ccc(F)cc3)nn12 [Example 5, N-Cyclopentyl-3-[2-(cyclopentylamino)-4-pyrimidinyl]-2-(4-fluorophenyl)-7-(methylsulfanyl)pyrazolo[1,5-α]pyridin-5-amine]
0.322 µM | Cc1cc(NC2CCCC2)cc2c(-c3ccnc(NC4CCCC4)n3)c(-c3ccc(F)cc3)nn12 [Example 3, N-Cyclopentyl-3-[2-(cyclopentylamino)-4-pyrimidinyl]-2-(4-fluorophenyl)-7-methylpyrazolo[1,5-α]pyridin-5-amine]
0.074 µM | CCSc1cc(NC2CCCC2)cc2c(-c3ccnc(NC4CCCC4)n3)c(-c3ccc(F)cc3)nn12 [Example 2, N-Cyclopentyl-3-[2-(cyclopentylamino)-4-pyrimidinyl]-7-(ethylsulfanyl)-2-(4-fluorophenyl)pyrazolo[1,5-δ]pyridin-5-amine]

Further lines, the compound ahead of its results:

SMILES | IC50
CCSc1cc(NC2CCCC2)cc2c(-c3ccnc(NC4CCCC4)n3)c(-c3ccc(OC)cc3)nn12 [Example 10, N-Cyclopentyl-3-[2-(cyclopentylamino)-4-pyrimidinyl]-7-(ethylsulfanyl)-2-(4-methoxyphenyl)pyrazolo[1,5-α]pyridin-5-amine] | 0.046 µM
COc1ccc(-c2nn3c(Sc4ccccc4)cc(NC4CCCC4)cc3c2-c2ccnc(NC3CCCC3)n2)cc1 [Example 12, N-Cyclopentyl-3-[2-(cyclopentylamino)-4-pyrimidinyl]-2-(4-methoxyphenyl)-7-(phenylsulfanyl)pyrazolo[1,5-α]pyridin-5-amine] | 2 µM
COc1ccc(-c2nn3c(SC(C)C)cc(NC4CCCC4)cc3c2-c2ccnc(NC3CCCC3)n2)cc1 [Example 11, N-Cyclopentyl-3-[2-(cyclopentylamino)-4-pyrimidinyl]-7-(isopropylsulfanyl)-2-(4-methoxyphenyl)pyrazolo[1,5-α]pyridin-5-amine] | 0.175 µM
COCCOc1cc(NC2CCCC2)cc2c(-c3ccnc(NC4CCCC4)n3)c(-c3ccc(F)cc3)nn12 [Example 6, N-Cyclopentyl-3-[2-(cyclopentylamino)-4-pyrimidinyl]-2-(4-fluorophenyl)-7-(2-methoxyethoxy)pyrazolo[1,5-α]pyridin-5-amine] | 0.082 µM
COc1ccc(-c2nn3c(SC)cc(NC4CCCC4)cc3c2-c2ccnc(NC3CCCC3)n2)cc1 [Example 9, N-Cyclopentyl-3-[2-(cyclopentylamino)-4-pyrimidinyl]-2-(4-methoxyphenyl)-7-(methylsulfanyl)pyrazolo[1,5-α]pyridin-5-amine] | 0.135 µM
